According to patent US11111251B2, “Positive allosteric modulators of the muscarinic acetylcholine receptor M1” (Vanderbilt University, priority 2016, dated 2021):

Biological target: T1, human mAChR M1 (Homo sapiens, UniProt P11229)
T1 sequence (P11229 1-460): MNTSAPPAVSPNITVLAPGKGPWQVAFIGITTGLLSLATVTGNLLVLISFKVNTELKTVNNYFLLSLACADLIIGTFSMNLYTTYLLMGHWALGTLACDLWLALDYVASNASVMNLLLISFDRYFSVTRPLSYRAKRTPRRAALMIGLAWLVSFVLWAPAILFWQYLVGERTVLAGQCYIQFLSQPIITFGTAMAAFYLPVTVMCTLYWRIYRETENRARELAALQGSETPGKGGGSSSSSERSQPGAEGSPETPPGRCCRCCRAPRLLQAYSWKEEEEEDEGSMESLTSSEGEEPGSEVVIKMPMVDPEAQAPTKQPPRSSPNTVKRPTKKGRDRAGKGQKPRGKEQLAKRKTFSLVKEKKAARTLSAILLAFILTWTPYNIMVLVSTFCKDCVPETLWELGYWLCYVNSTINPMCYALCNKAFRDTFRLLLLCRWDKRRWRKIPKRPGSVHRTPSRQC
Experiment: mAChR M1 cell-based functional assay: calcium mobilization, positive allosteric modulator mode (increase in EC20 acetylcholine response)
Details: Table 2, human M1; for EC50: read-out: Human M1 EC50; for Emax: read-out: Human M1 Emax (%)
Procedure, shortened: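 PAM potency reflects the concentration-dependent increase in calcium response to an EC20 acetylcholine challenge, given 144 s into a 300 s read after compound addition at 4 s (EC80 follows at 230 s). Cells were hM1-expressing CHO-K1, loaded 50 min with Fluo-4 AM. Curves used 11 points at 1:3 dilutions and four-parameter logistic fitting.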

Row | SMILES | EC50 | Emax
1 | Cc1ccc(Cc2cc(C(=O)NC3CC(F)(F)C3)nc3ccsc23)cn1 [Compound 260, N-(3,3-difluorocyclobutyl)-7-[(6-methyl-3-pyridyl)methyl]thieno[3,2-b]pyridine-5-carboxamide] | 5370 nM | 58.4%
2 | Cc1ccc(Cc2cc(C(=O)NC3CC4(COC4)C3)nc3ccsc23)cn1 [Compound 261, 7-[(6-methyl-3-pyridyl)methyl]-N-(2-oxaspiro[3.3]heptan-6-yl)thieno[3,2-b]pyridine-5-carboxamide] | > 10000 nM | 52.8%
3 | Cc1ccc(Cc2cc(C(=O)N[C@@H]3CCOC3)nc3ccsc23)cn1 [Compound 262] | > 10000 nM | 24.4%
4 | Cc1ccc(Cc2cc(C(=O)N[C@H]3CCOC3)nc3ccsc23)cn1 [Compound 263, 7-[(6-methyl-3-pyridyl)methyl]-N-[(35)-tetrahydrofuran-3-yl]thieno[3,2-b]pyridine-5-carboxamide] | > 10000 nM | 29.3%
5 | O=C(NC1CCOCC1)c1cc(C(=O)c2ccc(-n3cccn3)cc2)c2sccc2n1 [Compound 264, 7-(4-pyrazol-1-ylbenzoyl)-N-tetrahydropyran-4-yl-thieno[3,2-b]pyridine-5-carboxamide] | > 10000 nM | 72.7%
6 | Cc1ccc(Cc2cc(C(=O)N[C@@H]3CCCNC3)nc3ccsc23)cn1 [Compound 265, 7-[(6-methyl-3-pyridyl)methyl]-N-[(3R)-3-piperidyl]thieno[3,2-b]pyridine-5-carboxamide] | > 10000 nM | 56.4%
7 | Cc1ccc(Cc2cc(C(=O)N[C@H]3CCCNC3)nc3ccsc23)cn1 [Compound 266, 7-[(6-methyl-3-pyridyl)methyl]-N-[(3S)-3-piperidyl]thieno[3,2-b]pyridine-5-carboxamide] | > 10000 nM | 59.3%
8 | Cn1cc(-c2ccc(Cc3cc(C(=O)N[C@H]4CCOC[C@@H]4O)nc4ccsc34)cc2)cn1 [Compound 267, N-[(3R,4S)-3-hydroxytetrahydropyran-4-yl]-7-[[4-(1-methylpyrazol-4-yl)phenyl]methyl]thieno[3,2-b]pyridine-5-carboxamide] | 3.41 nM | 50.9%
9 | Cn1cc(-c2ccc(Cc3cc(C(=O)NC4CCOCC4)nc4ccsc34)cc2)cn1 [Compound 268, 7-[[4-(1-methylpyrazol-4-yl)phenyl]methyl]-N-tetrahydropyran-4-yl-thieno[3,2-b]pyridine-5-carboxamide] | 59.5 nM | 70.1%
10 | Cc1csc2c(Cc3ccc(-n4cccn4)cc3)cc(C(=O)N[C@H]3CCOC[C@@H]3O)nc12 [Compound 269, N-[(3R,4S)-3-hydroxytetrahydropyran-4-yl]-3-methyl-7-[(4-pyrazol-1-ylphenyl)methyl]thieno[3,2-b]pyridine-5-carboxamide] | 23.4 nM | 77.6%
11 | O=C(N[C@H]1CCOC[C@@H]1O)c1cc(Cc2c(F)cc(-c3cscn3)cc2F)c2sccc2n1 [Compound 270, 7-[(2,6-difluoro-4-thiazol-4-yl-phenyl)methyl]-N-[(3R,4S)-3-hydroxytetrahydropyran-4-yl]thieno[3,2-b]pyridine-5-carboxamide] | 39.7 nM | 78.5%
12 | O=C(NC1CCOCC1)c1cc(Cc2c(F)cc(-c3cscn3)cc2F)c2sccc2n1 [Compound 271, 7-[(2,6-difluoro-4-thiazol-4-yl-phenyl)methyl]-N-tetrahydropyran-4-yl-thieno[3,2-b]pyridine-5-carboxamide] | 312 nM | 45.5%
13 | O=C(NC1CC2(COC2)C1)c1cc(Cc2c(F)cc(-c3cscn3)cc2F)c2sccc2n1 [Compound 272, 7-[(2,6-difluoro-4-thiazol-4-yl-phenyl)methyl]-N-(2-oxaspiro[3.3]heptan-6-yl)thieno[3,2-b]pyridine-5-carboxamide] | 434 nM | 35.9%
